By inhibition is commonly meant the percentage by which the read-out fell short of the control. What is called IC50 is the concentration needed to halve the response being measured.

Data on two compounds can be found in patent US6815214B2, “Pharmaceutical uses and synthesis of diketopiperazines” (Celltech R & D, Inc., priority 2000, dated 2004).

Like-named read-outs stand apart in the source and are kept apart here. A value given as a limit tells only on which side of the number the result lay.

In one assay the target is T1, CXCR2 (Homo sapiens, UniProt P25025).
T1 construct: host or cells: CHO cells
T1 sequence (P25025 1-360): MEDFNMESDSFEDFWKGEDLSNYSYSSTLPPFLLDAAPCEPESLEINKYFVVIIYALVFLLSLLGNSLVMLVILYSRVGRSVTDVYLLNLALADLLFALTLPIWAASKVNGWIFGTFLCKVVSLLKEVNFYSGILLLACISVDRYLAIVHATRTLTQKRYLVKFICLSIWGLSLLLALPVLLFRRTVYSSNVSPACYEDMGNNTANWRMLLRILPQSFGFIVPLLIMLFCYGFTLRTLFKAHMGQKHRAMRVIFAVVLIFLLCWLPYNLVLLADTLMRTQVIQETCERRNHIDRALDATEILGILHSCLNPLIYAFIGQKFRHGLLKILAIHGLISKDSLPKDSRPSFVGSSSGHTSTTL
In words: CXCR2 radioligand binding assay with 125I labeled IL-8 (Panlabs). The settings on record: for inhibition at 20 µM: letter following "II", read-out: Biological Activity II (CXCR2): extent of inhibition; for IC50: read-out: IC50 (after II, CXCR2). From the text:
This assay is a radioligand binding assay in human recombinant CHO cells with ^125I labeled IL-8 as ligand as described in The Journal of Biological Chemistry (Ahuja, S. K.; Murphy, P. M;. J. Biol. Chem. 1996, 271, 20545).

Another assay relates to A549 cells. Put plainly: Inhibition of TNF-α-induced apoptosis in A549 cells (crystal violet). The settings on record: letter following "III"; inhibition at 20 μM. The format is cell-based. As to the method: The protocol used for determining inhibition of apoptosis in A549 cells was adopted from a system previously described (K. Last-Barney et al, J. of Immunology, 1988, 141, 527-530). Briefly, 10^5 cells in 200 μL 10% FBS/RPMI antibiotic containing culture medium were plated into 96 well round bottom culture plates and allowed to adhere for 6 hours at 37° C. in a 5% CO2 atmosphere. The media was removed and 100 μL of RPMI+1 μg/mL actinomycin-D was added to each well, followed by 100 μL of 20 μM solution of compound in 1% DMSO. This was incubated for 1 hour. […] The media was aspirated from the plates and 100 μL of 0.5% crystal violet in 20% methanol was added. After 10 minutes the plates were rinsed with water to remove excess stain, air dried, and read on a Spectramax spectrophotometer at a wavelength of 590 nm.

On to `COc1cc(OC)c(CNC(=O)Cc2ccc(CN3C(=O)[C@@H]4C[C@H](NC(=O)OCC5c6ccccc6-c6ccccc65)CN4C(=O)[C@@H]3CC(=O)O)cc2)c(OC)c1`, for which, on CXCR2, the inhibition at 20 µM was greater than 50%. Further, on CXCR2 (unit μm [sic]), the IC50 worked out at 15 µM.
Turning to `COC(=O)C[C@H]1C(=O)N2C[C@@H](NC(=O)c3cnc4ccccc4c3)C[C@H]2C(=O)N1Cc1ccc(CC(=O)NCc2c(OC)cc(OC)cc2OC)cc1`, at CXCR2, the inhibition at 20 µM is greater than 50% and the IC50 came out at 25 µM. In the assay with A549 cells, the “Biological Activity III (apoptosis): extent of inhibition” value is on record as “A (A refers to >50% inhibition at 20 μM)”.
